Measured values: the CheMixHub viscosity set
± gives the uncertainty stated by the source.

Experiment: xn = mol fraction of the nth substance listed

CC(C)C(C)O (stereo unspecified) + NCc1ccccc1
viscosity [mPa·s], 101.33 kPa
Conditions | x2 = 0.0999 | x2 = 0.2 | x2 = 0.3002 | x2 = 0.4001 | x2 = 0.4997 | x2 = 0.5998 | x2 = 0.6999 | x2 = 0.7997 | x2 = 0.9
298.15 K | 3.336 ± 0.041 | 3.109 ± 0.039 | 2.89 ± 0.036 | 2.683 ± 0.034 | 2.49 ± 0.032 | 2.315 ± 0.029 | 2.131 ± 0.027 | 1.96 ± 0.025 | 1.81 ± 0.023
303.15 K | 2.903 ± 0.037 | 2.663 ± 0.034 | 2.443 ± 0.031 | 2.249 ± 0.029 | 2.084 ± 0.027 | 1.927 ± 0.025 | 1.792 ± 0.023 | 1.673 ± 0.021 | 1.571 ± 0.02
308.15 K | 2.388 ± 0.032 | 2.184 ± 0.029 | 2.009 ± 0.027 | 1.853 ± 0.025 | 1.724 ± 0.023 | 1.614 ± 0.021 | 1.521 ± 0.02 | 1.449 ± 0.018 | 1.404 ± 0.017

Clc1ccccc1Cl + Nc1cccc(Cl)c1
viscosity [mPa·s], 100 kPa
Conditions | x2 = 0.1053 | x2 = 0.2011 | x2 = 0.3045 | x2 = 0.4064 | x2 = 0.507 | x2 = 0.6062 | x2 = 0.7041 | x2 = 0.8007 | x2 = 0.906
303.15 K | 1.568 ± 0.012 | 1.866 ± 0.014 | 2.184 ± 0.016 | 2.495 ± 0.018 | 2.799 ± 0.02 | 3.097 ± 0.022 | 3.389 ± 0.024 | 3.674 ± 0.026 | 3.983 ± 0.028
308.15 K | 1.444 ± 0.012 | 1.71 ± 0.013 | 1.995 ± 0.015 | 2.274 ± 0.017 | 2.546 ± 0.019 | 2.812 ± 0.021 | 3.072 ± 0.023 | 3.326 ± 0.025 | 3.6 ± 0.027
313.15 K | 1.319 ± 0.011 | 1.555 ± 0.013 | 1.807 ± 0.014 | 2.053 ± 0.016 | 2.293 ± 0.018 | 2.527 ± 0.019 | 2.756 ± 0.021 | 2.979 ± 0.023 | 3.22 ± 0.025
318.15 K | 1.206 ± 0.011 | 1.412 ± 0.012 | 1.629 ± 0.013 | 1.842 ± 0.015 | 2.048 ± 0.017 | 2.25 ± 0.018 | 2.447 ± 0.02 | 2.639 ± 0.021 | 2.845 ± 0.023

Oc1ccccc1Cl + Nc1ccccc1
101 kPa
Conditions | viscosity [mPa·s]
293.15 K, x1 = 0.1176 | 5.78 ± 0.07
293.15 K, x1 = 0.2278 | 7.74 ± 0.1
293.15 K, x1 = 0.3271 | 9.6 ± 0.14
293.15 K, x1 = 0.3874 | 10.56 ± 0.16
293.15 K, x1 = 0.4366 | 11.24 ± 0.18
293.15 K, x1 = 0.4885 | 11.66 ± 0.19
293.15 K, x1 = 0.5271 | 11.76 ± 0.19
293.15 K, x1 = 0.5756 | 11.48 ± 0.19
293.15 K, x1 = 0.6117 | 10.96 ± 0.18
293.15 K, x1 = 0.7174 | 9.04 ± 0.14
293.15 K, x1 = 0.8625 | 6.3 ± 0.09
298 K, x1 = 0.1032 | 4.945 ± 0.13
298 K, x1 = 0.2004 | 6.157 ± 0.16
298 K, x1 = 0.3011 | 7.228 ± 0.18
298 K, x1 = 0.4069 | 8.07 ± 0.21
298 K, x1 = 0.5008 | 8.81 ± 0.22
298 K, x1 = 0.6002 | 8 ± 0.2
298 K, x1 = 0.7016 | 6.99 ± 0.18
298 K, x1 = 0.7852 | 5.942 ± 0.15
298 K, x1 = 0.9025 | 4.443 ± 0.11
303 K, x1 = 0.1032 | 4.142 ± 0.11
303 K, x1 = 0.2004 | 5.008 ± 0.13
303 K, x1 = 0.3011 | 5.792 ± 0.15
303 K, x1 = 0.4069 | 6.329 ± 0.16
303 K, x1 = 0.5008 | 6.859 ± 0.17
303 K, x1 = 0.6002 | 6.232 ± 0.16
303 K, x1 = 0.7016 | 5.602 ± 0.14
303 K, x1 = 0.7852 | 4.74 ± 0.12
303 K, x1 = 0.9025 | 3.702 ± 0.095
303.15 K, x1 = 0.1176 | 4.05 ± 0.05
303.15 K, x1 = 0.2278 | 5.06 ± 0.06
303.15 K, x1 = 0.3271 | 5.93 ± 0.08
303.15 K, x1 = 0.3874 | 6.39 ± 0.08
303.15 K, x1 = 0.4366 | 6.72 ± 0.09
303.15 K, x1 = 0.4885 | 6.93 ± 0.09
303.15 K, x1 = 0.5271 | 6.95 ± 0.09
303.15 K, x1 = 0.5756 | 6.86 ± 0.09
303.15 K, x1 = 0.6117 | 6.7 ± 0.09
303.15 K, x1 = 0.7174 | 5.8 ± 0.07
303.15 K, x1 = 0.8625 | 4.31 ± 0.05
308 K, x1 = 0.1032 | 3.556 ± 0.091
308 K, x1 = 0.2004 | 4.265 ± 0.11
308 K, x1 = 0.3011 | 4.728 ± 0.12
308 K, x1 = 0.4069 | 4.979 ± 0.13
308 K, x1 = 0.5008 | 5.417 ± 0.14
308 K, x1 = 0.6002 | 4.922 ± 0.13
308 K, x1 = 0.7016 | 4.511 ± 0.12
308 K, x1 = 0.7852 | 3.826 ± 0.098
308 K, x1 = 0.9025 | 3.108 ± 0.08
313 K, x1 = 0.1032 | 3.11 ± 0.08
313 K, x1 = 0.2004 | 3.638 ± 0.093
313 K, x1 = 0.3011 | 3.9 ± 0.1
313 K, x1 = 0.4069 | 4.024 ± 0.1
313 K, x1 = 0.5008 | 4.382 ± 0.11
313 K, x1 = 0.6002 | 3.966 ± 0.1
313 K, x1 = 0.7016 | 3.75 ± 0.096
313 K, x1 = 0.7852 | 3.283 ± 0.084
313 K, x1 = 0.9025 | 2.744 ± 0.07
313.15 K, x1 = 0.1176 | 2.945 ± 0.03
313.15 K, x1 = 0.2278 | 3.54 ± 0.04
313.15 K, x1 = 0.3271 | 3.99 ± 0.04
313.15 K, x1 = 0.3874 | 4.2 ± 0.04
313.15 K, x1 = 0.4366 | 4.33 ± 0.05
313.15 K, x1 = 0.4885 | 4.39 ± 0.05
313.15 K, x1 = 0.5271 | 4.4 ± 0.05
313.15 K, x1 = 0.5756 | 4.34 ± 0.05
313.15 K, x1 = 0.6117 | 4.24 ± 0.05
313.15 K, x1 = 0.7174 | 3.79 ± 0.04
313.15 K, x1 = 0.8625 | 3.01 ± 0.03
318 K, x1 = 0.1032 | 2.671 ± 0.068
318 K, x1 = 0.2004 | 3.036 ± 0.078
318 K, x1 = 0.3011 | 3.241 ± 0.083
318 K, x1 = 0.4069 | 3.322 ± 0.085
318 K, x1 = 0.5008 | 3.611 ± 0.092
318 K, x1 = 0.6002 | 3.27 ± 0.084
318 K, x1 = 0.7016 | 3.137 ± 0.08
318 K, x1 = 0.7852 | 2.853 ± 0.073
318 K, x1 = 0.9025 | 2.446 ± 0.063
